For the experiment, the system named is fighting behaviour of isolated mice. Description: test on antiagressive activity in isolated mice. It counts as in vivo. Particulars: Mus musculus, po, 1 h; male albino mice kept isolated for 4 weeks; administered orally; fighting behaviour evaluated sixty minutes after administration; 5 mice per dose. As to the method: The ED50-values mentioned in the table were determined in a test on antiagressive activity in isolated mice (Advances in Pharmacol. 5, (1967), 79). In this test, male albino mice were kept isolated for a period of 4 weeks and then selected for the test on the basis of fighting behaviour present. The selection criterion is the occurrence of 3 or more fighting periods within 3 minutes after a mouse which has not been kept isolated has been placed in the cage of the mouse kept isolated. The compounds to be investigated were administered orally to the selected mice. Per dose 5 mice were used. Sixty minutes after the administration of the compound to be investigated the animals were evaluated again for fighting behaviour. […] The ED50-value in mg of active substance per kg of body weight was calculated from the results obtained.
The term ED50 denotes the dose that gives a 50% effect, or the effect in half of the subjects. The low end stands for an effect at a small dose, the high end for a need for a large dose. Compound `CC(=O)NCCN1CCN(c2ccccc2Cl)CC1` [US pat. spec. 2.833.770, reference compound] showed a median effective dose (ED50) of 18 mg/kg. The same measure for `CC(=O)N(C)CCN1CCN(c2cccc(C(F)(F)F)c2)CC1.Cl` [R4=CH3, R5=CH3, R6=3-CF3, T=O, m=0, p=2, 1-[2-(N-acetyl-N-methylamino)ethyl]-4-(3-trifluoromethylphenyl) piperazine hydrochloride (1:1)]: 0.9 mg/kg; for `CC(=O)NCCN1CCN(c2ccccc2)CC1` [US pat. spec. 2.722.529 ex.12, reference compound]: 15 mg/kg. In the case of `NC(=O)NCC[N+]1([O-])CCN(c2cccc(C(F)(F)F)c2)CC1` [R4=NH2, R5=H, R6=3-CF3, T=O, m=1, p=2, 1-[2-(N-aminocarbonylamino)ethyl]-4-(3-trifluoromethylphenyl) piperazine 1-oxide], the ED50 amounted to 1.9 mg/kg. The same measure for `CCN(CCN1CCN(c2cccc(C(F)(F)F)c2)CC1)C(C)=O` [R4=CH3, R5=C2H5, R6=3-CF3, T=O, m=0, p=2, 1-[2-(N-acetyl-N-ethylamino)ethyl]-4-(3-trifluoromethylphenyl) piperazine]: 3.2 mg/kg; for `CC(=O)NCCN1CCN(c2cccc(Br)c2)CC1` [R4=CH3, R5=H, R6=3-Br, T=O, m=0, p=2, 1-[2-(N-acetylamino)ethyl]-4-(3-bromophenyl)piperazine]: 2.6 mg/kg; for `COC(=O)NCCN1CCN(c2cccc(Cl)c2)CC1.Cl.Cl` [R4=CH3O, R5=H, R6=3-Cl, T=O, m=0, p=2, 1-[2-(N-methoxycarbonylamino)ethyl]-4-(3-chlorophenyl)piperazine dihydrochloride]: 3.5 mg/kg. Turning to `CC(=O)NCCN1CCN(c2cccc(Cl)c2)CC1` [R4=CH3, R5=H, R6=3-Cl, T=O, m=0, p=2, 1-[2-(N-acetylamino)ethyl]-4-(3-chlorophenyl)piperazine], it took a dose of 1.8 mg/kg to reach the 50% effect level (ED50). Then `CC(=O)NCC[N+]1([O-])CCN(c2cccc(C(F)(F)F)c2)CC1` [R4=CH3, R5=H, R6=3-CF3, T=O, m=1, p=2, 1-[2-(N-acetylamino)ethyl]-4-(3-trifluoromethylphenyl)piperazine 1-oxide], with 1.5 mg/kg; and `COC(=O)NCCN1CCN(c2cccc(C(F)(F)F)c2)CC1.Cl` [R4=CH3O, R5=H, R6=3-CF3, T=O, m=0, p=2, 1-[2-(N-methoxycarbonylamino)ethyl]-4-(3-trifluoromethylphenyl) piperazine hydrochloride], with 0.6 mg/kg; and `NC(=O)NC(=O)NCCN1CCN(c2cccc(C(F)(F)F)c2)CC1` [1 [-2-(N-allophanoylamino)ethyl]-4-(3-trifluoromethylphenyl)piperazine], with 1.5 mg/kg. Then `CC(=S)NCCN1CCN(c2cccc(C(F)(F)F)c2)CC1.Cl` [R4=CH3, R5=H, R6=3-CF3, T=S, m=0, p=2, 1-[2-(N-thioacetylamino)ethyl]-4-(3-trifluoromethylphenyl)piperazine hydrochloride], with 1.6 mg/kg; and `Cl.O=CNCCN1CCN(c2cccc(C(F)(F)F)c2)CC1` [R4=H, R5=H, R6=3-CF3, T=O, m=0, p=2, 1-[2-(N-formylamino)ethyl] -4-(3-trifluoromethylphenyl)piperazine hydrochloride], with 1.7 mg/kg. The same measure for `NC(=O)NC(=O)NCCN1CCN(c2cccc(Cl)c2)CC1` [R4=NH2CONH, R5=H, R6=3-Cl, T=O, m=0, p=2]: 2.3 mg/kg; for `CC(=O)NCCN1CCN(c2cccc(C(F)(F)F)c2)CC1` [R4=CH3, R5=H, R6=3-CF3, T=O, m=0, p=2, 1-[2-(N-acetylamino)ethyl]-4-(3-trifluoromethylphenyl)piperazine]: 0.7 mg/kg; for `NC(=O)NCCN1CCN(c2cccc(C(F)(F)F)c2)CC1` [R4=NH2, R5=H, R6=3-CF3, T=O, m=0, p=2, 1-[2-(N-aminocarbonylamino)ethyl]-4-(3-trifluoromethylphenyl) piperazine]: 1.3 mg/kg. `O=CNCCN1CCN(c2cccc(Cl)c2)CC1` [R4=H, R5=H, R6=3-Cl, T=O, m=0, p=2, 1-[2-(N-formylamino)ethyl]-4-(3-chlorophenyl)piperazine] registered an ED50 of 1.5 mg/kg. The same measure for `NC(=O)NCCN1CCN(c2cccc(Cl)c2)CC1` [R4=NH2, R5=H, R6=3-Cl, T=O, m=0, p=2, 1-[2-(N-aminocarbonylamino)ethyl]-4-(3-chlorophenyl)piperazine]: 2.3 mg/kg.

Source of the values: patent publication EP0015615A1, “Phenyl piperazine derivatives, their preparation and antiagressive medicines containing them” (DUPHAR INTERNATIONAL RESEARCH B.V, priority 1979, dated 1980).
